In ChEMBL document CHEMBL1201862, “PubChem BioAssay data set” (2004):
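Results reflect a 48-hour exposure of cells in 96-well plates to compound at five concentrations. GI50 is the concentration that inhibits growth by half.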 Active and inactive are the calls of the source. Cut-off read from the data, not from the text of the source: active = GI50 up to about 1.1 µM and inactive = higher.

How the values were obtained:
Assay in all cases: inhibition of tumour cell growth, NCI panel, 48 h
ACHN = tested on: ACHN
SF-295 = tested on: SF-295
SNB-75 = tested on: SNB-75
HCC 2998 = tested on: HCC 2998
K562 = tested on: K562
786-0 = tested on: 786-0
CCRF-CEM = tested on: CCRF-CEM
RXF 393 = tested on: RXF 393
UACC-62 = tested on: UACC-62
NCI-H460 = tested on: NCI-H460
OVCAR-3 = tested on: OVCAR-3
COLO 205 = tested on: COLO 205
NCI-H226 = tested on: NCI-H226
UACC-257 = tested on: UACC-257
SNB-19 = tested on: SNB-19
DMS-273 = tested on: DMS-273
OVCAR-5 = tested on: OVCAR-5

SMILES | GI50 (ACHN) | GI50 (SF-295) | GI50 (SNB-75) | GI50 (HCC 2998) | GI50 (K562) | GI50 (786-0) | GI50 (CCRF-CEM) | GI50 (RXF 393) | GI50 (UACC-62) | GI50 (NCI-H460) | GI50 (OVCAR-3) | GI50 (COLO 205) | GI50 (NCI-H226) | GI50 (UACC-257) | GI50 (SNB-19) | GI50 (DMS-273) | GI50 (OVCAR-5)
O=C1NC2C(CCO)CC=C[C@H]2c2cc3c(cc21)OCO3 (some centres not stated) | > 100 µM (inactive) | > 100 µM (inactive) | > 100 µM (inactive) | > 10 µM (inactive) | > 100 µM (inactive) | > 100 µM (inactive) | > 100 µM (inactive) | > 100 µM (inactive) | > 100 µM (inactive) | > 100 µM (inactive) | > 100 µM (inactive) | > 100 µM (inactive) | 75.3 µM (inactive) | > 100 µM (inactive) | > 100 µM (inactive) | > 100 µM (inactive) | 
CCCC1C(=O)CCc2c(OC)ccc(OC)c21 (configuration not stated) | > 100 µM (inactive) | > 100 µM (inactive) | 57.5 µM (inactive) | > 100 µM (inactive) | 59 µM (inactive) | > 100 µM (inactive) | 72.3 µM (inactive) | > 100 µM (inactive) | > 100 µM (inactive) | > 100 µM (inactive) | 73.6 µM (inactive) | > 100 µM (inactive) |  | > 100 µM (inactive) | 99.8 µM (inactive) | > 100 µM (inactive) | > 100 µM (inactive)
CC(C)c1cccc(=O)c(O)c1 [HINOKITIOL] | 3.33 µM (inactive) | 6.52 µM (inactive) | 24.4 µM (inactive) | 9.23 µM (inactive) | 6.38 µM (inactive) | 5.22 µM (inactive) | 2.79 µM (inactive) | 25.4 µM (inactive) | 5.79 µM (inactive) | 6.98 µM (inactive) | 4.05 µM (inactive) | 4.24 µM (inactive) | 11 µM (inactive) | 4.1 µM (inactive) | 10.9 µM (inactive) | 3.83 µM (inactive) | 15.7 µM (inactive)
Cc1cc(NS(=O)(=O)c2ccc(NC(=O)c3cccc4c(Nc5ccc(S(=O)(=O)Nc6cc(C)on6)cc5)c5ccc(Cl)cc5nc34)cc2)no1 | 85.7 µM (inactive) | > 100 µM (inactive) | 19.7 µM (inactive) | 56 µM (inactive) | 40.8 µM (inactive) | > 100 µM (inactive) | 41.9 µM (inactive) | 29.2 µM (inactive) | 35.2 µM (inactive) | 65 µM (inactive) | 68.5 µM (inactive) | 56.1 µM (inactive) |  | > 100 µM (inactive) | 28.1 µM (inactive) | 85.1 µM (inactive) | > 100 µM (inactive)
NC1=NC2=C(CCCC2)C(c2cccs2)S1 (configuration not stated) | > 100 µM (inactive) | > 100 µM (inactive) | > 100 µM (inactive) | > 100 µM (inactive) | 56.9 µM (inactive) | 84.5 µM (inactive) | 55 µM (inactive) | 38.5 µM (inactive) | > 100 µM (inactive) | > 100 µM (inactive) | 59.8 µM (inactive) | > 100 µM (inactive) |  | 49.7 µM (inactive) | > 100 µM (inactive) | > 100 µM (inactive) | > 100 µM (inactive)
CC1=C(c2cc(C(=O)Nc3ccc(Cl)cc3)nc(S)n2)Sc2ccccc2N1 | > 100 µM (inactive) | > 100 µM (inactive) | > 100 µM (inactive) | > 100 µM (inactive) | > 100 µM (inactive) | > 100 µM (inactive) | > 100 µM (inactive) | > 100 µM (inactive) | > 100 µM (inactive) | > 100 µM (inactive) | > 100 µM (inactive) | > 100 µM (inactive) |  | > 100 µM (inactive) | > 100 µM (inactive) | > 100 µM (inactive) | > 100 µM (inactive)
COc1ccc([C@@H]2C[C@@H]3C(=O)OC(=O)[C@@H]3c3c2c2ccccc2n3C)cc1 |  | > 100 µM (inactive) | > 100 µM (inactive) | > 100 µM (inactive) | > 100 µM (inactive) | > 100 µM (inactive) | > 100 µM (inactive) |  | > 100 µM (inactive) |  | > 100 µM (inactive) | > 100 µM (inactive) | > 100 µM (inactive) | > 100 µM (inactive) | > 100 µM (inactive) | > 100 µM (inactive) | 
CC[N+](CC)(CC)Cc1cn(S(=O)(=O)c2ccccc2)c2ccccc12 | > 100 µM (inactive) | > 100 µM (inactive) | 40.7 µM (inactive) | > 100 µM (inactive) | > 100 µM (inactive) | > 100 µM (inactive) | > 100 µM (inactive) |  | > 100 µM (inactive) | > 100 µM (inactive) | > 100 µM (inactive) | > 100 µM (inactive) | > 100 µM (inactive) | > 100 µM (inactive) | > 100 µM (inactive) | > 100 µM (inactive) | > 100 µM (inactive)
Cc1cc(C)nc(NS(=O)(=O)c2ccc(NC(=O)c3cccc4c(=O)c5ccccc5[nH]c34)cc2)n1 | 21.6 µM (inactive) | 19.8 µM (inactive) | 18.5 µM (inactive) | 16.7 µM (inactive) | 18.6 µM (inactive) | 18.7 µM (inactive) | 13 µM (inactive) |  | 20 µM (inactive) | 17 µM (inactive) | 19.5 µM (inactive) | 18.3 µM (inactive) | 19.1 µM (inactive) | 17.9 µM (inactive) | 27.2 µM (inactive) | 22.1 µM (inactive) | > 10 µM (inactive)
COC(=O)C(C(=O)OC)C1CCCC(=O)C1 (configuration not stated) | > 100 µM (inactive) | > 100 µM (inactive) | > 100 µM (inactive) | > 100 µM (inactive) | > 100 µM (inactive) | > 100 µM (inactive) | > 100 µM (inactive) | > 100 µM (inactive) | > 100 µM (inactive) | > 100 µM (inactive) | > 100 µM (inactive) | > 100 µM (inactive) |  | > 100 µM (inactive) | > 100 µM (inactive) | > 100 µM (inactive) | > 100 µM (inactive)
O=C1C(=O)N(c2ccc(Cl)cc2Cl)C(=O)C(=O)C1c1nc2ccccc2o1 | > 100 µM (inactive) | > 100 µM (inactive) | > 100 µM (inactive) | > 100 µM (inactive) | > 100 µM (inactive) | > 100 µM (inactive) | 93.8 µM (inactive) |  | > 100 µM (inactive) | > 100 µM (inactive) | > 100 µM (inactive) | > 100 µM (inactive) | > 100 µM (inactive) | > 100 µM (inactive) | > 100 µM (inactive) | > 100 µM (inactive) | > 100 µM (inactive)
Cc1cc([N+](=O)[O-])c(C)c2c1[nH]c1ccc(Cl)cc12 | > 100 µM (inactive) | > 100 µM (inactive) | > 100 µM (inactive) | > 100 µM (inactive) | 26.4 µM (inactive) | > 100 µM (inactive) | 23.2 µM (inactive) |  |  | > 100 µM (inactive) | 38.9 µM (inactive) | 71 µM (inactive) | > 100 µM (inactive) | > 100 µM (inactive) | > 100 µM (inactive) | 63.1 µM (inactive) | > 100 µM (inactive)
CCN(CC)CCCNC(=O)Cc1ccccc1Nc1c(Cl)cccc1Cl | 8.53 µM (inactive) | 18 µM (inactive) | 8.75 µM (inactive) | 3.01 µM (inactive) | 5.6 µM (inactive) | 0.465 µM (active) | 11.7 µM (inactive) | 15.8 µM (inactive) | 14.3 µM (inactive) |  | 16 µM (inactive) | 13.7 µM (inactive) | 18.5 µM (inactive) | 4.03 µM (inactive) | 16.9 µM (inactive) | 14.9 µM (inactive) | 11.4 µM (inactive)
CCOC(=O)c1cnc2c(ccc3ncccc32)c1OCC | > 100 µM (inactive) |  | > 100 µM (inactive) | > 100 µM (inactive) | > 100 µM (inactive) | > 100 µM (inactive) | 59.6 µM (inactive) | 82 µM (inactive) | > 100 µM (inactive) | > 100 µM (inactive) | > 100 µM (inactive) | > 100 µM (inactive) | > 100 µM (inactive) | > 100 µM (inactive) | > 100 µM (inactive) | > 100 µM (inactive) | > 100 µM (inactive)
CN(C)c1ccc(C(C#N)NNC(=O)Cc2ccccc2)cc1 (configuration not stated) | > 100 µM (inactive) | > 100 µM (inactive) | > 100 µM (inactive) |  | > 100 µM (inactive) | > 100 µM (inactive) | > 100 µM (inactive) | > 100 µM (inactive) | > 100 µM (inactive) | > 100 µM (inactive) | > 100 µM (inactive) | > 100 µM (inactive) | > 100 µM (inactive) | > 100 µM (inactive) |  | > 100 µM (inactive) | > 100 µM (inactive)
CCOC(=O)c1ccc(/N=N\c2ccc(N(CCC#N)CCC#N)cc2C)cc1 | > 100 µM (inactive) | > 100 µM (inactive) |  | > 100 µM (inactive) | > 100 µM (inactive) | 35.6 µM (inactive) | > 100 µM (inactive) | > 100 µM (inactive) | > 100 µM (inactive) |  | > 100 µM (inactive) | > 100 µM (inactive) | > 100 µM (inactive) | > 100 µM (inactive) | > 100 µM (inactive) | > 100 µM (inactive) | > 100 µM (inactive)
Nc1c(-c2ccc(Cl)cc2)[n+]([O-])c2ccccc2[n+]1[O-] | 57.1 µM (inactive) | 87.7 µM (inactive) | 67.3 µM (inactive) | 49.9 µM (inactive) | 49.3 µM (inactive) | > 100 µM (inactive) | 54.5 µM (inactive) |  | > 100 µM (inactive) | 94.2 µM (inactive) | 67.3 µM (inactive) | > 100 µM (inactive) | 14.5 µM (inactive) | 58.5 µM (inactive) | 34.8 µM (inactive) | > 100 µM (inactive) | > 100 µM (inactive)
